*1 amine or outer side, *2 acyl side, *3 side chain or, on linkers, in order; H or OH if unused. Where a SMILES comes first, the peptide text is derived from it. Where no end group is shown, it is not given here. [ ]: non-standard residue; d: D form. γGlu = O=C(O)[C@H](CCC(=O)[*:2])N[*:1]; βAsp = O=C(O)[C@H](CC(=O)[*:2])N[*:1]; Cya = N[C@@H](CS(=O)(=O)O)C(=O)O; Cit = NC(=O)NCCC[C@H](N)C(=O)O

One experiment deals with HLA-A*02:01 (Homo sapiens, UniProt P04439, D140Y/D185E/D98H/E176V/E277Q/G131W/G231S/I119V/I121R/I166T/I218V/L300P/L318F/N151K/N90K/P208A/P217A/Q86G/Q94H/R138H/R169H/T345S). Description: HLA-peptide competition binding assay, A*02:01.
Conditions: not given
LMGDKSENV [reference compound] registered an IC50 of 7370 nM.

Consider LLQVHHSCPL [reference compound], for which the IC50 was found to be 3090 nM.

Compound `CSCC[C@H](NC(=O)[C@@H](N)Cc1c[nH]c2ccccc12)C(=O)N[C@@H](CCCNC(N)=O)C(=O)N[C@@H](CC(C)C)C(=O)N[C@@H](CC(C)C)C(=O)N1CCC[C@H]1C(=O)N[C@@H](CC(C)C)C(=O)N[C@@H](CC(C)C)C(=O)N[C@@H](C)C(=O)N[C@@H](CC(C)C)C(=O)O` [WMULLPLLAL] (H-WM[Cit]LLPLLAL-OH) gave an IC50 of 310 nM.

Staying with this experiment, now noted: increase of A*02:01 binding of the modified peptide compared to the WT peptide.
For the compound `CC(C)C[C@H](NC(=O)[C@H](C)N)C(=O)N[C@@H](Cc1ccc(O)c(Cl)c1)C(=O)N[C@@H](CC(C)C)C(=O)N[C@H](C(=O)N[C@@H](CS)C(=O)NCC(=O)N[C@@H](CCC(=O)O)C(=O)N[C@@H](CCCNC(=N)N)C(=O)NCC(=O)O)C(C)C` [ALJLVCGERG], the Fold increase was 3.21 fold.

Still in this experiment, the particulars now being: post-translationally modified insulin peptide; competition binding assay; a dash indicates IC50 >40,000 nM; read-out: A*02:01 binding (IC50 nM) Modified.
For `CC(C)C[C@H](NC(=O)[C@H](C)N)C(=O)N[C@@H](CCC(=O)O)C(=O)NCC(=O)N[C@@H](CO)C(=O)N[C@@H](CC(C)C)C(=O)N[C@@H](CCC(N)=O)C(=O)N[C@@H](CCCCN)C(=O)N[C@@H](CCCNC(N)=O)C(=O)O` (H-ALEGSLQK[Cit]-OH; N-terminus and C-terminus assumed), the IC50 is over 40000 nM.

Turning to CGERGYFYTP, the IC50 was over 40000 nM.

In the case of `C[C@@H](O)[C@H](NC(=O)[C@H](CCCCN)NC(=O)[C@@H]1CCCN1C(=O)[C@@H](NC(=O)[C@H](Cc1ccc(O)cc1)NC(=O)[C@H](Cc1ccccc1)NC(=O)[C@@H](N)Cc1ccccc1)[C@@H](C)O)C(=O)N[C@@H](CCCNC(N)=O)C(=O)N[C@@H](CCCNC(N)=O)C(=O)O` (H-FFYTPKT[Cit][Cit]-OH; N-terminus and C-terminus assumed), the IC50 is over 40000 nM.

As for `CC(C)C[C@H](NC(=O)[C@H](Cc1c[nH]cn1)NC(=O)CC[C@H](N)C(=O)O)C(=O)N[C@@H](CS)C(=O)NCC(=O)N[C@@H](CO)C(=O)N[C@@H](Cc1c[nH]cn1)C(=O)N[C@@H](CC(C)C)C(=O)N[C@H](C(=O)N[C@@H](CCC(=O)O)C(=O)O)C(C)C` [ZHLCGSHLVE] (γGlu-HLCGSHLVE-OH; N-terminus and C-terminus assumed), the IC50 is over 40000 nM.

For GERGYFYTPK, the IC50 is over 40000 nM.

Turning to `CC(C)[C@H](N)C(=O)N[C@@H](CS(=O)(=O)O)C(=O)NCC(=O)N[C@@H](CCC(=O)O)C(=O)N[C@@H](CCCNC(=N)N)C(=O)NCC(=O)N[C@@H](Cc1ccc(O)cc1)C(=O)N[C@@H](Cc1ccc(O)cc1)C(=O)N[C@@H](Cc1ccc(O)cc1)C(=O)O` [VBGERGYYY] (H-V[Cya]GERGYYY-OH; N-terminus and C-terminus assumed), the IC50 was over 40000 nM.

Turning to `CC(C)C[C@H](NC(=O)[C@H](Cc1c[nH]cn1)NC(=O)CC[C@H](NC(=O)C[C@H](NC(=O)[C@@H](NC(=O)[C@@H](N)Cc1ccccc1)C(C)C)C(=O)O)C(=O)O)C(=O)N[C@@H](CS)C(=O)NCC(=O)N[C@@H](CO)C(=O)N[C@@H](Cc1c[nH]cn1)C(=O)O` [FVOZHLCGSH] (H-FV[βAsp][γGlu]HLCGSH-OH; N-terminus and C-terminus assumed), the IC50 is over 40000 nM.

`CC(C)C[C@H](N)C(=O)N[C@H](C(=O)N[C@@H](CS)C(=O)NCC(=O)N[C@@H](CCC(=O)O)C(=O)N[C@@H](CCCNC(N)=O)C(=O)NCC(=O)N[C@@H](Cc1ccccc1)C(=O)N[C@@H](Cc1ccccc1)C(=O)O)C(C)C` (H-LVCGE[Cit]GFF-OH; N-terminus and C-terminus assumed): the IC50 is over 40000 nM.

For the compound `CC(C)C[C@H](NC(=O)[C@H](CC(=O)O)NC(=O)[C@H](CCC(=O)O)NC(=O)[C@H](C)NC(=O)[C@H](CCC(=O)O)NC(=O)[C@H](CCCNC(N)=O)NC(=O)[C@@H](N)CCCNC(N)=O)C(=O)N[C@@H](CCC(N)=O)C(=O)N[C@H](C(=O)NCC(=O)O)C(C)C` (H-[Cit][Cit]EAEDLQVG-OH; N-terminus and C-terminus assumed), the IC50 is over 40000 nM.

In the case of EHLCGSHLVE, the IC50 is over 40000 nM.

Take `CC(C)C[C@H](NC(=O)[C@H](Cc1c[nH]cn1)NC(=O)[C@H](CO)NC(=O)CNC(=O)[C@H](CS)NC(=O)[C@H](CC(C)C)NC(=O)[C@H](Cc1c[nH]cn1)NC(=O)CC[C@H](NC(=O)C[C@H](NC(=O)[C@@H](N)C(C)C)C(=O)O)C(=O)O)C(=O)O` [VOZHLCGSHL] (H-V[βAsp][γGlu]HLCGSHL-OH; N-terminus and C-terminus assumed): the IC50 is over 40000 nM.

Regarding `CC[C@H](C)[C@H](NC(=O)CNC(=O)[C@H](CCCNC(N)=O)NC(=O)[C@H](CCCCN)NC(=O)[C@H](CCC(N)=O)NC(=O)[C@H](CC(C)C)NC(=O)[C@H](CO)NC(=O)CNC(=O)[C@@H](N)CCC(=O)O)C(=O)O` (H-EGSLQK[Cit]GI-OH; N-terminus and C-terminus assumed), the IC50 was over 40000 nM.

For the compound VCGERGYFYT, the IC50 was over 40000 nM.

With DEHLCGSHLV, the IC50 is over 40000 nM.

The experiment is the same for the next values; noted with them: post-translationally modified insulin-derived peptide; radiolabeled ligand competition, purified MHC, two-day incubation, three or more independent experiments; read-out: A*02:01 binding, Modified.
In the case of ERGYYYTPKT, the IC50 stood at 5730 nM.

On to `CSCC[C@H](NC(=O)[C@H](Cc1c[nH]c2ccccc12)NC(=O)[C@H](CC(C)C)NC(=O)[C@H](C)N)C(=O)N[C@@H](CCCNC(N)=O)C(=O)N[C@@H](CC(C)C)C(=O)N[C@@H](CC(C)C)C(=O)N1CCC[C@H]1C(=O)N[C@@H](CC(C)C)C(=O)O` (H-ALWM[Cit]LLPL-OH), for which the IC50 was 28 nM.

Take `CSCC[C@H](NC(=O)[C@H](Cc1c[nH]c2ccccc12)NC(=O)[C@H](CC(C)C)NC(=O)[C@H](C)NC(=O)[C@@H](N)CCSC)C(=O)N[C@@H](CCCNC(N)=O)C(=O)N[C@@H](CC(C)C)C(=O)N[C@@H](CC(C)C)C(=O)N1CCC[C@H]1C(=O)O` (H-MALWM[Cit]LLP-OH): the IC50 was found to be 2120 nM.

Staying with this experiment, now noted: read-out: A*02:01 binding (IC50 nM) Modified.
Take `CSCC[C@H](N)C(=O)N[C@@H](CCCNC(N)=O)C(=O)N[C@@H](CC(C)C)C(=O)N[C@@H](CC(C)C)C(=O)N1CCC[C@H]1C(=O)N[C@@H](CC(C)C)C(=O)N[C@@H](CC(C)C)C(=O)N[C@@H](C)C(=O)N[C@@H](CC(C)C)C(=O)N[C@@H](CC(C)C)C(=O)O` (H-M[Cit]LLPLLALL-OH): the IC50 was found to be 98 nM.

Consider `CC(C)C[C@H](NC(=O)[C@H](Cc1c[nH]cn1)NC(=O)[C@H](CO)NC(=O)CNC(=O)[C@H](CS(=O)(=O)O)NC(=O)[C@@H](N)CC(C)C)C(=O)N[C@H](C(=O)N[C@@H](CCC(=O)O)C(=O)N[C@@H](C)C(=O)O)C(C)C` [LBGSHLVEA] (H-L[Cya]GSHLVEA-OH), for which the IC50 is 14800 nM.

Consider `C[C@@H](O)[C@H](NC(=O)[C@H](Cc1ccc(O)cc1)NC(=O)[C@H](Cc1ccccc1)NC(=O)[C@H](Cc1ccccc1)NC(=O)CNC(=O)[C@H](CCCNC(N)=O)NC(=O)[C@@H](N)CCC(=O)O)C(=O)N1CCC[C@H]1C(=O)N[C@@H](CCCCN)C(=O)O` (H-E[Cit]GFFYTPK-OH), for which the IC50 turned out to be 38100 nM.

Staying with this experiment, now noted: read-out: A*02:01 binding (IC50 nM) WT.
Take RLLPLLALLA: the IC50 stood at 11 nM.

In the case of MRLLPLLAL [MRLLPLLAL], the IC50 came to 228 nM.

Staying with this experiment, now noted: read-out: IC50 nM, target assay A*02:01.
For SMCRFSPLTL [reference compound], the IC50 was found to be 1150 nM.

As to VIVMLTPLV [reference compound], the IC50 stood at 2120 nM.

As for FLWSVFMLI [reference compound], the IC50 was determined as 26 nM.

As to ELAEYLYNI [reference compound], the IC50 turned out to be 637 nM.

Consider VMNILLQYVV [reference compound], for which the IC50 was found to be 2310 nM.

SLTAISTTL [reference compound]: the IC50 worked out at 242 nM.

For HIAGSLAVV [reference compound], the IC50 was 216 nM.

Take “FLIVLSVAL [FLIVLSVAL, reference compound]”: the IC50 was 26 nM.

In the case of `CC[C@H](C)[C@H](NC(=O)[C@H](CO)NC(=O)[C@@H](NC(=O)[C@H](CS)NC(=O)[C@H](CS)NC(=O)[C@H](CCC(N)=O)NC(=O)[C@H](CCC(=O)O)NC(=O)[C@@H](NC(=O)[C@@H](NC(=O)CN)[C@@H](C)CC)C(C)C)[C@@H](C)O)C(=O)O` [reference compound] (H-GIVEQCCTSI-OH), the IC50 was 7450 nM.

Regarding KCQEVLAWL [reference compound], the IC50 was over 40000 nM.

Regarding RMMEYGTTMV [reference compound], the IC50 was 709 nM.

SLASLLPHV [reference compound]: the IC50 turned out to be 9.1 nM.

For TVASRLGPV [reference compound], the IC50 was 7700 nM.

The experiment is the same for the next values; noted with them: unmodified (WT) insulin peptide; competition binding assay; a dash indicates IC50 >40,000 nM; read-out: A*02:01 binding (IC50 nM) WT.
In the case of EGSLQKRGI, the IC50 is over 40000 nM.

As for RREAEDLQV, the IC50 is over 40000 nM.

Turning to `C[C@@H](O)[C@H](NC(=O)[C@H](CCCCN)NC(=O)[C@@H]1CCCN1C(=O)[C@@H](NC(=O)[C@H](Cc1ccc(O)cc1)NC(=O)[C@H](Cc1ccccc1)NC(=O)[C@H](Cc1ccccc1)NC(=O)CNC(=O)[C@@H](N)CCCNC(=N)N)[C@@H](C)O)C(=O)N[C@@H](CCCNC(=N)N)C(=O)O`, the IC50 was over 40000 nM.

For the compound `C[C@@H](O)[C@H](NC(=O)[C@H](CCCCN)NC(=O)[C@@H]1CCCN1C(=O)[C@@H](NC(=O)[C@H](Cc1ccc(O)cc1)NC(=O)[C@H](Cc1ccccc1)NC(=O)[C@H](Cc1ccccc1)NC(=O)CNC(=O)[C@H](CCCNC(=N)N)NC(=O)[C@@H](N)CCC(=O)O)[C@@H](C)O)C(=O)O`, the IC50 is over 40000 nM.

As for FVNQHLCGS, the IC50 was over 40000 nM.

As to PKTRREAEDL, the IC50 was over 40000 nM.

TRREAEDLQ: the IC50 is over 40000 nM.

QHLCGSHLV: the IC50 was over 40000 nM.

For the compound ALEGSLQKRG, the IC50 is over 40000 nM.

As for TRREAEDLQV, the IC50 was over 40000 nM.

For the compound CGERGFFYTP, the IC50 is over 40000 nM.

Staying with this experiment, now noted: unmodified (wild type) insulin-derived peptide; radiolabeled ligand competition, purified MHC, two-day incubation, three or more independent experiments; read-out: A*02:01 binding, WT.
With `C[C@@H](O)[C@H](NC(=O)[C@H](CCCCN)NC(=O)[C@@H]1CCCN1C(=O)[C@@H](NC(=O)[C@H](Cc1ccc(O)cc1)NC(=O)[C@H](Cc1ccccc1)NC(=O)[C@H](Cc1ccccc1)NC(=O)CNC(=O)[C@H](CCCNC(=N)N)NC(=O)[C@@H](N)CCC(=O)O)[C@@H](C)O)C(=O)O`, the IC50 is over 40000 nM.

With MALWMRLLP, the IC50 came out at 4540 nM.

As to QHLCGSHLV, the IC50 is over 40000 nM.

These data come from paper PMC5863483, “Low HLA binding of diabetes-associated CD8+ T-cell epitopes is increased by post translational modifications” (BMC Immunology, 2018).
